This test has as its target SINV nsP2 (Sindbis virus, UniProt P03317).

The values that follow come from article doi:10.1101/2025.06.03.657755v1 (biorxiv, 2025).

SINV nsP2, sequence (P03317 541-1347): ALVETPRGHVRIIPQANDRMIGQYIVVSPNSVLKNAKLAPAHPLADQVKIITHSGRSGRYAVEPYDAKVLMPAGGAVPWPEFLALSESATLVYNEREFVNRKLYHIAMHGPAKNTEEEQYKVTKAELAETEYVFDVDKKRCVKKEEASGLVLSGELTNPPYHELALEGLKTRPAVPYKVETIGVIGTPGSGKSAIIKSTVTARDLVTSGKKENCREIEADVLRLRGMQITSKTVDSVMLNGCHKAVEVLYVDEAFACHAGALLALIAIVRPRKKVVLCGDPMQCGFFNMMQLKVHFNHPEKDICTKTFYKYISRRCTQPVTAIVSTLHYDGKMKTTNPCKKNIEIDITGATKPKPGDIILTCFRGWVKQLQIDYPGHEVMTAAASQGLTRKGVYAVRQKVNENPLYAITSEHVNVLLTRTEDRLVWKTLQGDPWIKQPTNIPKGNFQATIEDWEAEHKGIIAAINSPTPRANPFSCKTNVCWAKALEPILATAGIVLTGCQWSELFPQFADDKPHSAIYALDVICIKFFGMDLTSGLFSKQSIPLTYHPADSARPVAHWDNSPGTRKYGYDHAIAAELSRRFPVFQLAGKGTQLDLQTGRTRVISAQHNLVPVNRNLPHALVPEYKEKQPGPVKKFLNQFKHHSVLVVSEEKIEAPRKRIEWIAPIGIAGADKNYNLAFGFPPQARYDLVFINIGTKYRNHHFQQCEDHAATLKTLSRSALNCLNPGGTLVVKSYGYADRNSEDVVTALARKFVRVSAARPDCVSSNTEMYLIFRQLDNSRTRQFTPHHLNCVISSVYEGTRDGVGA

Regarding `Nc1ncnc2c1ncn2[C@@H]1O[C@H](COP(=O)(O)OP(=O)(O)OP(=O)(O)O)[C@@H](O)[C@H]1O` [ATP], the Km entry is “these additions increase the ATPase Km”.
